The compounds below were run against T1, human CRTH2 (Homo sapiens, UniProt Q9Y5Y4) (assay: [35S]GTPγS binding assay (SPA)). Conditions: not given.
T1 construct: expressed in transfected cells; membranes used
T1 sequence (Q9Y5Y4 1-395): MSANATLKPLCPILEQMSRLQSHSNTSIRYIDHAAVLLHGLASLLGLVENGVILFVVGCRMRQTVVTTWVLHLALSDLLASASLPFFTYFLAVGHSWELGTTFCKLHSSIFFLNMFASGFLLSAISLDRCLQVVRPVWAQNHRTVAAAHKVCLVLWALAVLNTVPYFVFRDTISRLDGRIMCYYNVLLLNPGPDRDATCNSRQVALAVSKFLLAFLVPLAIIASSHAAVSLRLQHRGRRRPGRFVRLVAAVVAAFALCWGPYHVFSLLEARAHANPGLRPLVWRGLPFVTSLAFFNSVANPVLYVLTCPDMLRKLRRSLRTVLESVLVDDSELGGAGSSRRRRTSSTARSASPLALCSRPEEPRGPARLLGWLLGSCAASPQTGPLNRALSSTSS
Type: biochemical
Experimental: [^35S]GTPγS Binding Assay
SPA [^35S]GTPγS binding was performed on membranes from CHO-K1 cells stably expressing human CRTH2. To a white, clear-bottomed 384-well plate, 4 μg membrane protein was incubated in the binding buffer (20 mM HEPES, pH 7.4, 10 mM MgCl2, 300 mM NaCl, 0.2% BSA) with 60 nM DHK-PGD2, 500 pM [^35S]GTPγS, 10 μM GDP, and 100 μg wheat germ agglutinin-coupled SPA beads (GE Healthcare) with and without increasing concentrations of compounds. The final assay volume was 40 μL and contained 1% DMSO. Samples were incubated for 2 h at ambient temperature. Plates were centrifuged 5 min at 1500 rpm. Plates were read after an additional 4 h using the Trilux 1450 Microbeta (PerkinElmer) with a 30 sec/well reading time.

| Compound | IC50 [nM] |
| --- | --- |
| CN(Cc1cccc(-c2cc(C(F)(F)F)ccc2OCC(=O)O)c1)C(=O)Oc1ccccc1 [Compound 24, {[3′-{[methyl(phenoxycarbonyl)amino]methyl}-5-(trifluoromethyl)biphenyl-2-yl]oxy}acetic acid] | 100 to 1000 |

Same assay, conditions: membranes from CHO-K1 cells stably expressing human CRTH2; 60 nM DHK-PGD2; read-out: CRTH2 GTPγS assay IC50

| Compound | IC50 [nM] |
| --- | --- |
| CCCCNC(=O)CN(Cc1cccc(-c2ccccc2OCC(=O)O)c1)C(=O)Cc1ccccc1 [Compound 13, {[3′-{[[2-(butylamino)-2-oxoethyl](phenylacetyl)amino]methyl}-biphenyl-2-yl]oxy}acetic acid] | < 100 |
| CN(Cc1cccc(-c2cc(C(F)(F)F)ccc2OCC(=O)O)c1)C(=O)c1ccccc1 [Compound 23, {[3′-{[methyl(phenylcarbonyl)amino]methyl}-5-(trifluoromethyl)biphenyl-2-yl]oxy}acetic acid] | 100 to 1000 |
| CCCCNC(=O)CN(Cc1cccc(-c2ccccc2OCC(=O)O)c1)C(=O)OCCCC [Compound 6, {[3′-({(butoxy carbonyl)[2-(butylamino)-2-oxoethyl]amino}methyl)biphenyl-2-yl]oxy}acetic acid] | < 100 |
| CCCCNC(=O)N(C)Cc1cccc(-c2cc(C(F)(F)F)ccc2OCC(=O)O)c1 [Compound 30, {[3′-{[(butylaminocarbonyl)(methyl)amino]methyl}-5-(trifluoromethyl)biphenyl-2-yl]oxy}acetic acid] | < 100 |
| CCCCNC(=O)CN(Cc1cccc(-c2cc(C)ccc2OCC(=O)O)c1)C(=O)OCCCC [Compound 8, {[3′-({(butoxy carbonyl)[2-(butylamino)-2-oxoethyl]amino}methyl)-5-methylbiphenyl-2-yl]oxy}acetic acid] | < 100 |
| CN(Cc1cccc(-c2cc(C(F)(F)F)ccc2OCC(=O)O)c1)C(=O)Nc1ccccc1 [Compound 28, {[3′-{[(anilinocarbonyl)(methyl)amino]methyl}-5-(trifluoromethyl)biphenyl-2-yl]oxy}acetic acid] | 100 to 1000 |
| CCCCOC(=O)N(CC(=O)NC)Cc1cccc(-c2cc(C(F)(F)F)ccc2OCC(=O)O)c1 [Compound 20, {[3′-({(butoxycarbonyl) [2-(methylamino)-2-oxoethyl]amino}methyl)-5-(trifluoromethyl)biphenyl-2-yl]oxy}acetic acid] | < 100 |
| CN(Cc1cccc(-c2cc(C(F)(F)F)ccc2OCC(=O)O)c1)C(=O)c1cccnc1 [Compound 32, {[3′-{[methyl(pyridine-3-ylcarbonyl)amino]methyl}-5-(trifluoromethyl)biphenyl-2-yl]oxy}acetic acid] | < 100 |
| CCCCNC(=O)CN(Cc1cccc(-c2cc(F)ccc2OCC(=O)O)c1)C(=O)OCCCC [Compound 7, {[3′-({(butoxy carbonyl)[2-(butylamino)-2-oxoethyl]amino}methyl)-5-fluorobiphenyl-2-yl]oxy}acetic acid] | < 100 |
| CN(Cc1cccc(-c2cc(C(F)(F)F)ccc2OCC(=O)O)c1)C(=O)Nc1cccnc1 [Compound 29] | 100 to 1000 |
| CCCCNC(=O)CN(CCc1ccc(-c2ccccc2OCC(=O)O)cc1)C(=O)OCCCC [Compound 36, {[4′-({(butoxy carbonyl)[2-(butylamino)-2-oxoethyl]amino}ethyl)biphenyl-2-yl]oxy}acetic acid] | < 100 |
| CN(Cc1cccc(-c2cc(C(F)(F)F)ccc2OCC(=O)O)c1)S(=O)(=O)c1cccnc1 [Compound 34, {[3′-{[(pyridine-3-ylsulfonyl)(methyl)amino]methyl}-5-(trifluoromethyl)biphenyl-2-yl]oxy}acetic acid] | 100 to 1000 |
| CNC(=O)CN(Cc1cccc(-c2cc(C(F)(F)F)ccc2OCC(=O)O)c1)C(C)=O [Compound 21, {[3′-({(acetyl)[2-(methylamino)-2-oxoethyl]amino}methyl)-5-(trifluoromethyl)biphenyl-2-yl]oxy}acetic acid] | 100 to 1000 |
| CC(=O)N(Cc1cccc(-c2cc(C(F)(F)F)ccc2OCC(=O)O)c1)c1ccccc1 [Compound 22, {[3′-{[acetyl(phenyl)amino]methyl}-5-(trifluoromethyl)biphenyl-2-yl]oxy}acetic acid] | 100 to 1000 |
| CCCCOC(=O)N(CCCC)Cc1cccc(-c2cc(C(F)(F)F)ccc2OCC(=O)O)c1 [Compound 19, {[3′-{[(butoxycarbonyl)(butyl)amino]methyl}-5-(trifluoromethyl)biphenyl-2-yl]oxy}acetic acid] | < 100 |
| CCCCOC(=O)N(Cc1cccc(-c2cc(C(F)(F)F)ccc2OCC(=O)O)c1)c1ccccc1 [Compound 25, {[3′-{[(butoxycarbonyl)(phenyl)amino]methyl}-5-(trifluoromethyl)biphenyl-2-yl]oxy}acetic acid] | 100 to 1000 |
| CN(Cc1cccc(-c2cc(C(F)(F)F)ccc2OCC(=O)O)c1)S(=O)(=O)c1ccccc1 [Compound 33, {[3′-{[(benzensulfonyl)(methyl)amino]methyl}-5-(trifluoromethyl)biphenyl-2-yl]oxy}acetic acid] | 100 to 1000 |
| CCCCOC(=O)N(Cc1cccc(-c2cc(C(F)(F)F)ccc2OCC(=O)O)c1)Cc1nccs1 [Compound 27, {[3′-{[(butoxycarbonyl)(1,3-thiazol-2-ylmethyl)amino]methyl}-5-(trifluoromethyl)biphenyl-2-yl]oxy}acetic acid] | < 100 |
| CCCCNC(=O)CN(Cc1cccc(-c2cc(Cl)ccc2OCC(=O)O)c1)C(=O)OCCCC [Compound 11, {[3′-({(butoxy carbonyl)[2-(butylamino)-2-oxoethyl]amino}methyl)-5-chlorobiphenyl-2-yl]oxy}acetic acid] | < 100 |
| CCCCNC(=O)CN(Cc1cccc(-c2cc(C(F)(F)F)ccc2OCC(=O)O)c1)C(=O)OCCCC [Compound 9, {[3′-({(butoxy carbonyl)[2-(butylamino)-2-oxoethyl]amino}methyl)-5-(trifluoromethyl)biphenyl-2-yl]oxy}acetic acid] | < 100 |
| CCCCOC(=O)N(C)Cc1cccc(-c2cc(C(F)(F)F)ccc2OCC(=O)O)c1 [Compound 18, {[3′-{[(butoxycarbonyl)(methyl)amino]methyl}-5-(trifluoromethyl)biphenyl-2-yl]oxy}acetic acid] | < 100 |

From US20110136877A1, “2-PHENYL PHENOXYACETIC ACIDS USEFUL FOR TREATING INFLAMMATORY DISORDERS” (LIGAND PHARMACEUTICALS INC., priority 2008, published 2011)
